Laboratory results published in patent US10647747B2, “Cyclosporin derivatives and uses thereof” (S&T Global Inc., priority 2010, dated 2020).
*1 amine or outer side, *2 acyl side, *3 side chain or, on linkers, in order; H or OH if unused. Where a SMILES comes first, the peptide text is derived from it. [ ]: non-standard residue; d: D form. The star is where a group is joined. ξ: configuration not given here. MeBmt = C/C=C/C[C@@H](C)[C@@H](O)[C@H](NC)C(=O)O; X8 = CCN(CC)CCS[C@@H](C(=O)[*:2])N(C)[*:1]; X6 = CCN(CC)CCS[C@H](C(=O)[*:2])N(C)[*:1]; X3 = CC=CCC(C)C(O)C(C(=O)[*:2])N(C)[*:1]; NMeIle(3ξ) = CCC(C)[C@H](NC)C(=O)O; NMeI = CC[CH](C)[CH](NC)C(=O)O; NMeL = CN[CH](CC(C)C)C(=O)O; NMeV = CN[CH](C(=O)O)C(C)C; Et2NCH2CH2 = CCN(CC)CC*; NMeS = CN[CH](CO)C(=O)O; Abu = CC[CH](N)C(=O)O

Each molecule was assayed on HCV replicon in cell line ET (luc-ubi-neo/ET), Huh7 human hepatoma (assay: HCV subgenomic replicon assay, luciferase end point). Conditions: HCV subgenomic replicon, cell line ET (luc-ubi-neo/ET) Huh7, luciferase end point; read-out: Antiviral activity EC50.
Type: cell-based
`C/C=C/C[C@@H](C)[C@@H](O)[C@H]1C(=O)N[C@@H](CC)C(=O)N(C)[C@H](CSCCN(C)C)C(=O)N(C)[C@@H](CC(C)C)C(=O)N[C@@H](C(C)C)C(=O)N(C)[C@@H](CC(C)C)C(=O)N[C@@H](C)C(=O)N[C@H](C)C(=O)N(C)[C@@H](CC(C)C)C(=O)N(C)[C@@H](CC(C)C)C(=O)N(C)[C@@H](C(C)C)C(=O)N1C` (single isomer, unassigned; isomer b) [[(S)-(2-(N,N-Dimethylamino)ethylthio)methyl-Sar]-3-cyclosporin (isomer B)] gave an EC50 of 170 nM.
`CC=CCC(C)C(O)C1C(=O)NC(CC)C(=O)N(C)C(COCCN(CC)CC)C(=O)N(C)C(C(C)CC)C(=O)NC(C(C)C)C(=O)N(C)C(CC(C)C)C(=O)NC(C)C(=O)NC(C)C(=O)N(C)C(CC(C)C)C(=O)N(C)C(CC(C)C)C(=O)N(C)C(C(C)C)C(=O)N1C` [[(R)-(2-(N,N-Diethylamino)ethoxy)methyl-Sar]-3-[N-MeIle]-4-cyclosporin] (cyclo([X3][Abu][NMeS](Et2NCH2CH2)[NMeI]V[NMeL]AA[NMeL][NMeL][NMeV]); configuration not given here) showed an EC50 of 160 nM.
Molecule `CC=CCC(C)C(O)C1C(=O)NC(CC)C(=O)N(C)C(COCCN2CCOCC2)C(=O)N(C)C(CC(C)(C)OC)C(=O)NC(C(C)C)C(=O)N(C)C(CC(C)C)C(=O)NC(C)C(=O)NC(C)C(=O)N(C)C(CC(C)C)C(=O)N(C)C(CC(C)C)C(=O)N(C)C(C(C)C)C(=O)N1C` [[(R)-(2-(N-Morpholino)ethoxy)methyl-Sar]-3-[(γ-methoxy)-N-MeLeu]-4-cyclosporin] has an EC50 of 150 nM.
Work on `CC=CCC(C)C(O)C1C(=O)NC(CC)C(=O)N(C)C(COCCN2CCCCC2)C(=O)N(C)C(CC(C)(C)O)C(=O)NC(C(C)C)C(=O)N(C)C(CC(C)C)C(=O)NC(C)C(=O)NC(C)C(=O)N(C)C(CC(C)C)C(=O)N(C)C(CC(C)C)C(=O)N(C)C(C(C)C)C(=O)N1C` [[(R)-(2-(N-Piperidinyl)ethoxy)methyl-Sar]-3-[(γ-hydroxy)-N-MeLeu]-4-cyclosporin] yielded an EC50 of 140 nM.
In the case of `CC=CCC(C)C(O)C1C(=O)NC(CC)C(=O)N(C)C(COCCN2CCCC2)C(=O)N(C)C(CC(C)(C)O)C(=O)NC(C(C)C)C(=O)N(C)C(CC(C)C)C(=O)NC(C)C(=O)NC(C)C(=O)N(C)C(CC(C)C)C(=O)N(C)C(CC(C)C)C(=O)N(C)C(C(C)C)C(=O)N1C` [[(R)-(2-(N-Pyrrolidino)ethoxy)methyl-Sar]-3-[(γ-hydroxy)-N-MeLeu]-4-cyclosporin], the EC50 is reported as 200 nM.

Same assay, conditions: Hepatitis C virus, Huh-7, HCV subgenomic replicon, cell line ET (luc-ubi-neo/ET) Huh7, luciferase end point; read-out: Antiviral activity EC50
`C/C=C/C[C@@H](C)[C@@H](O)[C@H]1C(=O)N[C@@H](CC)C(=O)N(C)[C@H](COCCN(C)C)C(=O)N(C)[C@@H](CC(C)C)C(=O)N[C@@H](C(C)C)C(=O)N(C)[C@@H](CC(C)C)C(=O)N[C@@H](C)C(=O)N[C@H](C)C(=O)N(C)[C@@H](CC(C)C)C(=O)N(C)[C@@H](CC(C)C)C(=O)N(C)[C@@H](C(C)C)C(=O)N1C` [[(R)-(2-(N,N-Dimethylamino)ethoxy)methyl-Sar]-3-cyclosporin] showed an EC50 of 150 nM.

Same assay, conditions: Table 12, HCV replicon luciferase; read-out: Antiviral activity EC50
Molecule `C/C=C/C[C@@H](C)[C@@H](O)[C@H]1C(=O)N[C@@H](CC)C(=O)N(C)[C@H](SCCN(CC)CC)C(=O)N(C)[C@@H](C(C)CC)C(=O)N[C@@H](C(C)C)C(=O)N(C)[C@@H](CC(C)C)C(=O)N[C@@H](C)C(=O)N[C@H](C)C(=O)N(C)[C@@H](CC(C)C)C(=O)N(C)[C@@H](CC(C)C)C(=O)N(C)[C@@H](C(C)C)C(=O)N1C` (stereo partly drawn) [(R)-2-(N,N-Diethylamino)ethylthio-Sar]-3-[N-MeIle]-4-cyclosporin] (cyclo(A[dA][NMeL][NMeL][NMeV][MeBmt][Abu][X6][NMeIle(3ξ)]V[NMeL])) has an EC50 of 1870 nM.
Work on `C/C=C/C[C@@H](C)[C@@H](O)[C@H]1C(=O)N[C@@H](CC)C(=O)N(C)[C@H](SCCN(CC)CC)C(=O)N(C)[C@@H](C(C)C)C(=O)N[C@@H](C(C)C)C(=O)N(C)[C@@H](CC(C)C)C(=O)N[C@@H](C)C(=O)N[C@H](C)C(=O)N(C)[C@@H](CC(C)C)C(=O)N(C)[C@@H](CC(C)C)C(=O)N(C)[C@@H](C(C)C)C(=O)N1C` [(R)-2-(N,N-Diethylamino)ethylthio-Sar]-3-[N-MeVal]-4-cyclosporin] (cyclo(A[dA][NMeL][NMeL][NMeV][MeBmt][Abu][X6][NMeV]V[NMeL])) yielded an EC50 of 3660 nM.
With `CC=CCC(C)C(O)C1C(=O)NC(CC)C(=O)N(C)C(SCCNCC(C)(C)C)C(=O)N(C)C(CC(C)C)C(=O)NC(C(C)C)C(=O)N(C)C(CC(C)C)C(=O)NC(C)C(=O)NC(C)C(=O)N(C)C(CC(C)C)C(=O)N(C)C(CC(C)C)C(=O)N(C)C(C(C)C)C(=O)N1C` [(R)-2-(N-neo-Pentylamino)ethylthio-Sar]-3-cyclosporin] the EC50 was 3090 nM.
`C/C=C/C[C@@H](C)[C@@H](O)[C@H]1C(=O)N[C@@H](CC)C(=O)N(C)[C@@H](SCCN(CC)CC)C(=O)N(C)[C@@H](C(C)C)C(=O)N[C@@H](C(C)C)C(=O)N(C)[C@@H](CC(C)C)C(=O)N[C@@H](C)C(=O)N[C@H](C)C(=O)N(C)[C@@H](CC(C)C)C(=O)N(C)[C@@H](CC(C)C)C(=O)N(C)[C@@H](C(C)C)C(=O)N1C` [(S)-2-(N,N-Diethylamino)ethylthio-Sar]-3-[N-MeVal]-4-cyclosporin] (cyclo(A[dA][NMeL][NMeL][NMeV][MeBmt][Abu][X8][NMeV]V[NMeL])) gave an EC50 of 40 nM.
`CC=CCC(C)C(O)C1C(=O)NC(CC)C(=O)N(C)C(SCCN(C)C)C(=O)N(C)C(C(C)C)C(=O)NC(C(C)C)C(=O)N(C)C(CC(C)C)C(=O)NC(C)C(=O)NC(C)C(=O)N(C)C(CC(C)C)C(=O)N(C)C(CC(C)C)C(=O)N(C)C(C(C)C)C(=O)N1C` [(S)-2-(N,N-Dimethylamino)ethylthio-Sar]-3-[N-MeVal]-4-cyclosporin] gave an EC50 of 130 nM.
Work on `CC=CCC(C)C(O)C1C(=O)NC(CC)C(=O)N(C)C(SCCN(CC)CC)C(=O)N(C)C(CC(C)C)C(=O)NC(C(C)C)C(=O)N(C)C(CC(C)C)C(=O)NC(C)C(=O)NC(C)C(=O)N(C)C(CC(C)C)C(=O)N(C)C(CC(C)C)C(=O)N(C)C(C(C)C)C(=O)N1C` [(S)-2-(N-Diethylamino)ethylthio-Sar]-3-cyclosporin] yielded an EC50 of 160 nM.
`CC=CCC(C)C(O)C1C(=O)NC(CC)C(=O)N(C)C(SCCN(CC(C)C)C(C)C)C(=O)N(C)C(CC(C)C)C(=O)NC(C(C)C)C(=O)N(C)C(CC(C)C)C(=O)NC(C)C(=O)NC(C)C(=O)N(C)C(CC(C)C)C(=O)N(C)C(CC(C)C)C(=O)N(C)C(C(C)C)C(=O)N1C` [(S)-2-(N-iso-Butyl-N-iso-propylamino)ethylthio-Sar]-3-cyclosporin] showed an EC50 of 480 nM.
For `CC=CCC(C)C(O)C1C(=O)NC(CC)C(=O)N(C)C(SCCNCC(C)(C)C)C(=O)N(C)C(CC(C)C)C(=O)NC(C(C)C)C(=O)N(C)C(CC(C)C)C(=O)NC(C)C(=O)NC(C)C(=O)N(C)C(CC(C)C)C(=O)N(C)C(CC(C)C)C(=O)N(C)C(C(C)C)C(=O)N1C` [(S)-2-(N-neo-Pentylamino)ethylthio-Sar]-3-cyclosporin], the EC50 was 230 nM.

Same assay, conditions: Table 13, HCV replicon luciferase; read-out: Antiviral activity EC50
`CC=CCC(C)C(O)C1C(=O)NC(CC)C(=O)N(C)C(SCCCN(CC)CC)C(=O)N(C)C(CC(C)(C)O)C(=O)NC(C(C)C)C(=O)N(C)C(CC(C)C)C(=O)NC(C)C(=O)NC(C)C(=O)N(C)C(CC(C)C)C(=O)N(C)C(CC(C)C)C(=O)N(C)C(C(C)C)C(=O)N1C` [(S)-3-(N,N-Diethylamino)propylthio-Sar]-3-[(γ-hydroxy)-N-MeLeu]-4-cyclosporin] gave an EC50 of 70 nM.
